Source: ChEMBL document CHEMBL1681651, “A broad spectrum anticancer nucleoside with selective toxicity against human colon cells in vitro” (2011)

What was measured:
Assay type in all cases: functional
SK-OV-3 = test: Growth inhibition of human SKOV3 cells assessed as cell growth at 1 uM after 48 hrs by SRB assay; conditions: SK-OV-3, 48 h, read-out: Activity
CAKI-1 = test: Growth inhibition of human Caki1 cells assessed as cell growth at 1 uM after 48 hrs by SRB assay; conditions: CAKI-1, 48 h, read-out: Activity
A549 = test: Growth inhibition of human A549 cells assessed as cell growth at 10 uM after 48 hrs by SRB assay; conditions: A549, 48 h, read-out: Activity
NCI-H226 = test: Growth inhibition of human NCI-H226 cells assessed as cell growth at 10 uM after 48 hrs by SRB assay; conditions: NCI-H226, 48 h, read-out: Activity
NCI-H460 [1] = test: Growth inhibition of human NCI-H460 cells assessed as cell growth at 10 uM after 48 hrs by SRB assay; conditions: NCI-H460, 48 h, read-out: Activity
COLO 205 = test: Growth inhibition of human COLO205 cells assessed as cell growth at 10 uM after 48 hrs by SRB assay; conditions: COLO 205, 48 h, read-out: Activity
Malme-3M [2] = test: Growth inhibition of human MALME-3M cells after 48 hrs by […] growth inhibition assay
IGROV-1 [3] = test: Growth inhibition of human IGROV1 cells after 48 hrs by […] growth inhibition assay; conditions: IGROV-1, 48 h
TK-10 [4] = test: Growth inhibition of human TK10 cells after 48 hrs by […] growth inhibition assay; conditions: TK-10, 48 h
HCT-116 = test: Growth inhibition of human HCT116 cells assessed as cell growth at 0.1 uM after 48 hrs by SRB assay; conditions: HCT-116, 48 h, read-out: Activity
KM12 = test: Growth inhibition of human KM12 cells assessed as cell growth at 0.1 uM after 48 hrs by SRB assay; conditions: KM12, 48 h, read-out: Activity
Malme-3M [5] = test: Growth inhibition of human MALME-3M cells assessed as cell growth at 0.1 uM after 48 hrs by SRB assay; conditions: read-out: Activity
M14 = test: Growth inhibition of human M14 cells assessed as cell growth at 0.1 uM after 48 hrs by SRB assay; conditions: M14, 48 h, read-out: Activity
UACC-62 [6] = test: Growth inhibition of human UACC62 cells assessed as cell growth at 0.1 uM after 48 hrs by SRB assay; conditions: UACC-62, 48 h, read-out: Activity
IGROV-1 [7] = test: Growth inhibition of human IGROV1 cells assessed as cell growth at 0.1 uM after 48 hrs by SRB assay; conditions: IGROV-1, 48 h, read-out: Activity
LOX IMVI = test: Growth inhibition of human LOXIMVI cells assessed as cell growth at 10 uM after 48 hrs by SRB assay; conditions: read-out: Activity
SK-MEL-5 = test: Growth inhibition of human SK-MEL-5 cells assessed as cell growth at 10 uM after 48 hrs by SRB assay; conditions: SK-MEL-5, 48 h, read-out: Activity
IGROV-1 [8] = test: Growth inhibition of human IGROV1 cells assessed as cell growth at 10 uM after 48 hrs by SRB assay; conditions: IGROV-1, 48 h, read-out: Activity
UO-31 [9] = test: Growth inhibition of human UO31 cells assessed as cell growth at 10 uM after 48 hrs by SRB assay; conditions: UO-31, 48 h, read-out: Activity
NCI-H23 [10] = test: Growth inhibition of human NCI-H23 cells assessed as cell growth at 100 uM after 48 hrs by SRB assay; conditions: NCI-H23, 48 h, read-out: Activity
U-251 = test: Growth inhibition of human U251 cells assessed as cell growth at 100 uM after 48 hrs by SRB assay; conditions: U-251, 48 h, read-out: Activity
UACC-257 = test: Growth inhibition of human UACC257 cells assessed as cell growth at 100 uM after 48 hrs by SRB assay; conditions: UACC-257, 48 h, read-out: Activity
UACC-62 [11] = test: Growth inhibition of human UACC62 cells assessed as cell growth at 100 uM after 48 hrs by SRB assay; conditions: UACC-62, 48 h, read-out: Activity
DU-145 = test: Growth inhibition of human DU145 cells assessed as cell growth at 100 uM after 48 hrs by SRB assay; conditions: DU-145, 48 h, read-out: Activity
HT-29 = test: Growth inhibition of human HT-29 cells assessed as cell growth at 1 mM after 48 hrs by SRB assay; conditions: HT-29, 48 h, read-out: Activity
SNB-75 = test: Growth inhibition of human SNB75 cells assessed as cell growth at 1 mM after 48 hrs by SRB assay; conditions: SNB-75, 48 h, read-out: Activity
TK-10 [12] = test: Growth inhibition of human TK10 cells assessed as cell growth at 1 mM after 48 hrs by SRB assay; conditions: TK-10, 48 h, read-out: Activity
UO-31 [13] = test: Growth inhibition of human UO31 cells assessed as cell growth at 1 mM after 48 hrs by SRB assay; conditions: UO-31, 48 h, read-out: Activity
[14] = Growth inhibition of human […] cells assessed as cell growth at 1 uM after 48 hrs by SRB assay; conditions: read-out: Activity
NCI-H23 [15] = test: Growth inhibition of human NCI-H23 cells assessed as cell growth at 1 uM after 48 hrs by SRB assay; conditions: NCI-H23, 48 h, read-out: Activity
NCI-H460 [16] = test: Growth inhibition of human NCI-H460 cells assessed as cell growth at 1 uM after 48 hrs by SRB assay; conditions: NCI-H460, 48 h, read-out: Activity
HCC 2998 = test: Growth inhibition of human HCC2998 cells assessed as cell growth at 1 uM after 48 hrs by SRB assay; conditions: HCC 2998, 48 h, read-out: Activity
SF-268 = test: Growth inhibition of human SF268 cells assessed as cell growth at 1 uM after 48 hrs by SRB assay; conditions: SF-268, 48 h, read-out: Activity
SNB-19 = test: Growth inhibition of human SNB19 cells assessed as cell growth at 1 uM after 48 hrs by SRB assay; conditions: SNB-19, 48 h, read-out: Activity
UACC-62 [17] = test: Growth inhibition of human UACC62 cells assessed as cell growth at 1 uM after 48 hrs by SRB assay; conditions: UACC-62, 48 h, read-out: Activity
OVCAR-8 = test: Growth inhibition of human OVCAR8 cells assessed as cell growth at 1 uM after 48 hrs by SRB assay; conditions: OVCAR-8, 48 h, read-out: Activity
[18] = read-out: LC50 (the source's name)
[19] = read-out: pLC50 (the source's name) (converted)

CCOC(=O)C[C@H]1[C@@H](O[Si](C)(C)C(C)(C)C)[C@H](n2cnc3c(NC(=O)Nc4ccccc4)ncnc32)O[C@@H]1CNC(=O)NC
growth at 1 µM (SK-OV-3): 96%
growth at 1 µM (CAKI-1): 95%
growth at 10 µM (A549): 94%
growth at 10 µM (NCI-H226): 102%
growth at 10 µM (NCI-H460 [1]): 101%
growth at 10 µM (COLO 205): 93%
GI50 (Malme-3M [2]; read-out: GI50): 10.3 µM
LC50 (concentration killing 50% of cells) (Malme-3M [2]; read-out: LC50): > 100 µM
TGI (Malme-3M [2]; read-out: TGI): > 100 µM
GI50 (Malme-3M [2]; read-out: pGI50 (converted)): 10.2 µM
LC50 (concentration killing 50% of cells) (Malme-3M [2]; read-out: pLC50 (converted)): > 100 µM
TGI (Malme-3M [2]; read-out: pTGI (converted)): > 100 µM
GI50 (IGROV-1 [3]; read-out: GI50): 3.85 µM
CC50 (IGROV-1 [3]; [18]): 79.2 µM
TGI (IGROV-1 [3]; read-out: TGI): 18 µM
GI50 (IGROV-1 [3]; read-out: pGI50 (converted)): 3.89 µM
CC50 (IGROV-1 [3]; [19]): 79.4 µM
TGI (IGROV-1 [3]; read-out: pTGI (converted)): 18.2 µM
GI50 (TK-10 [4]; read-out: GI50): 12.4 µM
CC50 (TK-10 [4]; [18]): > 100 µM
TGI (TK-10 [4]; read-out: TGI): 40.5 µM
GI50 (TK-10 [4]; read-out: pGI50 (converted)): 12.3 µM
CC50 (TK-10 [4]; [19]): > 100 µM
TGI (TK-10 [4]; read-out: pTGI (converted)): 40.7 µM
growth at 0.1 µM (HCT-116): 93%
growth at 0.1 µM (KM12): 107%
growth at 0.1 µM (Malme-3M [5]): 104%
growth at 0.1 µM (M14): 90%
growth at 0.1 µM (UACC-62 [6]): 100%
growth at 0.1 µM (IGROV-1 [7]): 94%
growth at 10 µM (LOX IMVI): 93%
growth at 10 µM (SK-MEL-5): 89%
growth at 10 µM (IGROV-1 [8]): 93%
growth at 10 µM (UO-31 [9]): 82%
growth at 100 µM (NCI-H23 [10]): 65%
growth at 100 µM (U-251): 28%
growth at 100 µM (UACC-257): 34%
growth at 100 µM (UACC-62 [11]): 82%
growth at 100 µM (DU-145): 24%
growth at 1000 µM (HT-29): 3%
growth at 1000 µM (SNB-75): 22%
growth at 1000 µM (TK-10 [12]): -38%
growth at 1000 µM (UO-31 [13]): -69%
growth at 1 µM [14]: 75%
growth at 1 µM (NCI-H23 [15]): 100%
growth at 1 µM (NCI-H460 [16]): 102%
growth at 1 µM (HCC 2998): 96%
growth at 1 µM (SF-268): 103%
growth at 1 µM (SNB-19): 95%
growth at 1 µM (UACC-62 [17]): 102%
growth at 1 µM (OVCAR-8): 100%

CNC(=O)OC[C@H]1O[C@@H](n2cnc3c(NC(=O)Nc4ccccc4)ncnc32)[C@H](O[Si](C)(C)C(C)(C)C)[C@@H]1O[Si](C)(C)C(C)(C)C
growth at 10 µM (A549): 80.8%
growth at 10 µM (NCI-H226): 93.2%
growth at 10 µM (NCI-H460 [1]): 103%
growth at 10 µM (COLO 205): 106%
growth at 10 µM (LOX IMVI): 87.4%
growth at 10 µM (SK-MEL-5): 101%
growth at 10 µM (IGROV-1 [8]): 111%
growth at 10 µM (UO-31 [9]): 106%

CNC(=O)NC[C@H]1O[C@@H](n2cnc3c(NC(=O)Nc4ccccc4)ncnc32)[C@H](O[Si](C)(C)C(C)(C)C)[C@@H]1O[Si](C)(C)C(C)(C)C
growth at 1 µM (SK-OV-3): 113%
growth at 1 µM (CAKI-1): 99%
growth at 10 µM (A549): 90%
growth at 10 µM (NCI-H226): 105%
growth at 10 µM (NCI-H460 [1]): 88%
growth at 10 µM (COLO 205): 105%
GI50 (Malme-3M [2]; read-out: GI50): 2.98 µM
LC50 (concentration killing 50% of cells) (Malme-3M [2]; read-out: LC50): > 100 µM
TGI (Malme-3M [2]; read-out: TGI): 9.84 µM
GI50 (Malme-3M [2]; read-out: pGI50 (converted)): 2.95 µM
LC50 (concentration killing 50% of cells) (Malme-3M [2]; read-out: pLC50 (converted)): > 100 µM
TGI (Malme-3M [2]; read-out: pTGI (converted)): 9.77 µM
GI50 (IGROV-1 [3]; read-out: GI50): 2.74 µM
CC50 (IGROV-1 [3]; [18]): > 100 µM
TGI (IGROV-1 [3]; read-out: TGI): 7.76 µM
GI50 (IGROV-1 [3]; read-out: pGI50 (converted)): 2.75 µM
CC50 (IGROV-1 [3]; [19]): > 100 µM
TGI (IGROV-1 [3]; read-out: pTGI (converted)): 7.76 µM
GI50 (TK-10 [4]; read-out: GI50): 4.29 µM
CC50 (TK-10 [4]; [18]): > 100 µM
TGI (TK-10 [4]; read-out: TGI): 72.6 µM
GI50 (TK-10 [4]; read-out: pGI50 (converted)): 4.27 µM
CC50 (TK-10 [4]; [19]): > 100 µM
TGI (TK-10 [4]; read-out: pTGI (converted)): 72.4 µM
growth at 0.1 µM (HCT-116): 107%
growth at 0.1 µM (KM12): 104%
growth at 0.1 µM (Malme-3M [5]): 105%
growth at 0.1 µM (M14): 101%
growth at 0.1 µM (UACC-62 [6]): 102%
growth at 0.1 µM (IGROV-1 [7]): 100%
growth at 10 µM (LOX IMVI): 98%
growth at 10 µM (SK-MEL-5): 89%
growth at 10 µM (IGROV-1 [8]): 98%
growth at 10 µM (UO-31 [9]): 84%
growth at 100 µM (NCI-H23 [10]): -5%
growth at 100 µM (U-251): 2%
growth at 100 µM (UACC-257): 11%
growth at 100 µM (UACC-62 [11]): 23%
growth at 100 µM (DU-145): -35%
growth at 1000 µM (HT-29): -100%
growth at 1000 µM (SNB-75): -12%
growth at 1000 µM (TK-10 [12]): -2%
growth at 1000 µM (UO-31 [13]): -21%
growth at 1 µM [14]: 98%
growth at 1 µM (NCI-H23 [15]): 106%
growth at 1 µM (NCI-H460 [16]): 93%
growth at 1 µM (HCC 2998): 93%
growth at 1 µM (SF-268): 106%
growth at 1 µM (SNB-19): 100%
growth at 1 µM (UACC-62 [17]): 100%
growth at 1 µM (OVCAR-8): 106%
